Data published in US20240254119A1 (THIRD HARMONIC BIO, INC., priority 2022, published 2024).

What was measured:
[1] = Kinetic solubility assay; type: physicochemical; details: kinetic solubility, 50 mM PB (pH 7.4), shaken 24 hours at RT
How it was run: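 Concentration in the filtrate was determined by UPLC-UV or HPLC-UV with a standard curve. Before that, compound (10 mM DMSO stock) in 50 mM PB at pH 7.4 was agitated 24 h at room temperature, then PTFE-filtered with centrifugation.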

[2] = biological target: T1, CSF-1R (Homo sapiens, UniProt P07333); assay: Caliper biochemical assay, CSF-1R; details: Table 6
T1 construct: purchased Invitrogen PV3249 (lot 662393N)
T1 sequence (P07333 20-972): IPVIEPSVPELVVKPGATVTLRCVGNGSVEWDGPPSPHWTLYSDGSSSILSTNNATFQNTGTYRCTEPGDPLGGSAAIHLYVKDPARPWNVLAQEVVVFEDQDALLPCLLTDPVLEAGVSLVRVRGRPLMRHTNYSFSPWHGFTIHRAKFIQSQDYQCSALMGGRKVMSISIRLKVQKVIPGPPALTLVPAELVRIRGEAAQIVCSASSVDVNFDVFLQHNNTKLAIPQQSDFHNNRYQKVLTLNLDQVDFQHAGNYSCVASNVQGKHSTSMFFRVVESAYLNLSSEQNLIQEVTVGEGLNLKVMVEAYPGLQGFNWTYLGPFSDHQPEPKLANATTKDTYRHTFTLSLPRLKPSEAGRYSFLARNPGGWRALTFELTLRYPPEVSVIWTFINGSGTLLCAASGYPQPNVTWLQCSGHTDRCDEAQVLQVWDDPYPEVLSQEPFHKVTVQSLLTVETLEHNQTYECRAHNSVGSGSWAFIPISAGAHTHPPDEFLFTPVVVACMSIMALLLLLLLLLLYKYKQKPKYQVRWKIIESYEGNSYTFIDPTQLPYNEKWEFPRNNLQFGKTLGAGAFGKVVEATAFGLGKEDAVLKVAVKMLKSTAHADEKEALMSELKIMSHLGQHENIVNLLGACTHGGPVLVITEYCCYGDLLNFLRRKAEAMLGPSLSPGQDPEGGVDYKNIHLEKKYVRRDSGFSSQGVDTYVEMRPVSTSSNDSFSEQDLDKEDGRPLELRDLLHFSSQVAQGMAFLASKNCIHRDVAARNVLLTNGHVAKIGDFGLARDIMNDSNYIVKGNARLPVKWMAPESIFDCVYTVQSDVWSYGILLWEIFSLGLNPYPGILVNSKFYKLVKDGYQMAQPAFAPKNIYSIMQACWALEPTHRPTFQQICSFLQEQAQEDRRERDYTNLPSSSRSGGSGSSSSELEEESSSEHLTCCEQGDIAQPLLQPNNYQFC
How it was run: (§1)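 Mobility-shift readout: after EDTA quench, fluorescent peptide and product are resolved electrophoretically on a LabChip and measured by fluorescence. Reactions contain enzyme, carboxyfluorescein peptide, ATP, Mn^2+ and compound, run 3 h at 25° C; 100% inhibition control lacks enzyme.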

[3] = biological target: T2, wtKIT (Homo sapiens, UniProt P10721); assay: Caliper biochemical assay, wtKIT; details: Table 6, read-out: KIT Biochemical IC50 avg
T2 construct: 1888289AM in the reaction mixtures
T2 sequence (P10721 26-976): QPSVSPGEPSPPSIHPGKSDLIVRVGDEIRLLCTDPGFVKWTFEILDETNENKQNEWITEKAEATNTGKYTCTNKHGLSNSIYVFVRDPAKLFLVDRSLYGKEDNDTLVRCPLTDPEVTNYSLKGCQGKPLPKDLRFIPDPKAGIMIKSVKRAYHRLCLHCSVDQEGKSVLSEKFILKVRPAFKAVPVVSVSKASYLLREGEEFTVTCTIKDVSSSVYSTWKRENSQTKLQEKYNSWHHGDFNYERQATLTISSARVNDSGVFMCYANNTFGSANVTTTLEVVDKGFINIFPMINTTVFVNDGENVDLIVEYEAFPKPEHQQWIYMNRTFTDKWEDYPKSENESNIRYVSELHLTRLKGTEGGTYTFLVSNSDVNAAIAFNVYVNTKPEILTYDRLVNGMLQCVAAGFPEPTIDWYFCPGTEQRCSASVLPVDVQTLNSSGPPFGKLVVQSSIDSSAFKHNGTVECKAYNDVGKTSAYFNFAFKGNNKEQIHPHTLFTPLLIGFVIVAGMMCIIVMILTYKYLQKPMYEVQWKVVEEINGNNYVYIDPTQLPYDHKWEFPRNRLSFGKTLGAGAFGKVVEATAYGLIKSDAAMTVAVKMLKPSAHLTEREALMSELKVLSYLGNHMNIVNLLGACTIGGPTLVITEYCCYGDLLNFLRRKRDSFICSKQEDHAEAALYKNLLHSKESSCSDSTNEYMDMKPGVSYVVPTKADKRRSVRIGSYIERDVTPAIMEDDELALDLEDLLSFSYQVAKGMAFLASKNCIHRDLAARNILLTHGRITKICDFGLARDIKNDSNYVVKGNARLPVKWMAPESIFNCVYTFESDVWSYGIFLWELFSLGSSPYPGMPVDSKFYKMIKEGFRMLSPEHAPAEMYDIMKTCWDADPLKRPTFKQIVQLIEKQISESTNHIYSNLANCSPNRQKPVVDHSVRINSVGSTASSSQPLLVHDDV
How it was run: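 Mobility-shift read-out: after EDTA stop, fluorescent peptide substrate and product resolved electrophoretically on LabChip 3000. Reaction ran 3 h at 25° C with 400 μM ATP, Mn^2+ cofactor, 5.0 nM wtKIT, 1 μM FAM-peptide, pH 7.5 HEPES buffer; no-enzyme wells defined full inhibition.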

[4] = biological target: T2, wtKIT; assay: HTRF biochemical assay, wtKIT (phosphorylation of a peptide substrate); details: Table 4
How it was run: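 HTRF read-out of FAM-peptide (1 µM) phosphorylation after anti-phosphotyrosine antibody addition and EDTA quench. Reaction: 5.0 nM wtKIT, 400 µM ATP, 10 mM Mn2+, HEPES pH 7.5, 1% DMSO, 3 h, 25 °C; optional enzyme-compound preincubation; enzyme level set for 10-20% conversion.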

[5] = biological target: T3, BCRP (BCRP-MDCKII monolayer) (Homo sapiens, UniProt Q9UNQ0); assay: MDCKII-BCRP bidirectional transport assay; type: in vitro ADME; details: for MDCK-BCRP: Papp A-B: apical to basolateral
T3 construct: host or cells: MDCKII (canine kidney) cells
T3 sequence (Q9UNQ0 1-655): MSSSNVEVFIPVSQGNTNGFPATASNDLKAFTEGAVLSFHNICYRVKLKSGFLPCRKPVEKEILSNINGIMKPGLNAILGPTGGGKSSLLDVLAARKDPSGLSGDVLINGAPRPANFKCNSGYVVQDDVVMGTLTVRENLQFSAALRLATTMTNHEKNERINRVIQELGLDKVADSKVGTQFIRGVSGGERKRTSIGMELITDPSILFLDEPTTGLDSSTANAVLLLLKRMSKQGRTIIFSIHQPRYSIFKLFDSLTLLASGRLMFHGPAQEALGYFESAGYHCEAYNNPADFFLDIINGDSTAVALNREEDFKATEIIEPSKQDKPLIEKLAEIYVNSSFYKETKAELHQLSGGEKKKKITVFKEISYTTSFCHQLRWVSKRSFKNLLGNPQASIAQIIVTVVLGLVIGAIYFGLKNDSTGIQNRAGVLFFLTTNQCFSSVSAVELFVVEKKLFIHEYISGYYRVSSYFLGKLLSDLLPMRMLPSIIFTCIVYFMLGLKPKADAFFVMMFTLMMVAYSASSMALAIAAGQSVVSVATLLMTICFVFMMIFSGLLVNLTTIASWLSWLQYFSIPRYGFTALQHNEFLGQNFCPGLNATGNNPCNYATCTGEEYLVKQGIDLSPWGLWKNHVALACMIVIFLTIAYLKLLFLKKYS
How it was run: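 Efflux ratios were derived from Papp values, alongside recovery, with compounds quantified by LC-MS/MS. Both directions were tested in duplicate across BCRP-MDCKII monolayers used on days 12–15. Incubation ran 120 min at 37° C, 5% CO2, after a 15 min preincubation in assay buffer.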

[6] = biological target: T4, PDGFRα (Homo sapiens, UniProt P16234); assay: Caliper biochemical assay, PDGFRα; details: Table 6
T4 construct: purchased Millipore 14-467 (lot 26321_ACTI)
T4 sequence (P16234 24-1089): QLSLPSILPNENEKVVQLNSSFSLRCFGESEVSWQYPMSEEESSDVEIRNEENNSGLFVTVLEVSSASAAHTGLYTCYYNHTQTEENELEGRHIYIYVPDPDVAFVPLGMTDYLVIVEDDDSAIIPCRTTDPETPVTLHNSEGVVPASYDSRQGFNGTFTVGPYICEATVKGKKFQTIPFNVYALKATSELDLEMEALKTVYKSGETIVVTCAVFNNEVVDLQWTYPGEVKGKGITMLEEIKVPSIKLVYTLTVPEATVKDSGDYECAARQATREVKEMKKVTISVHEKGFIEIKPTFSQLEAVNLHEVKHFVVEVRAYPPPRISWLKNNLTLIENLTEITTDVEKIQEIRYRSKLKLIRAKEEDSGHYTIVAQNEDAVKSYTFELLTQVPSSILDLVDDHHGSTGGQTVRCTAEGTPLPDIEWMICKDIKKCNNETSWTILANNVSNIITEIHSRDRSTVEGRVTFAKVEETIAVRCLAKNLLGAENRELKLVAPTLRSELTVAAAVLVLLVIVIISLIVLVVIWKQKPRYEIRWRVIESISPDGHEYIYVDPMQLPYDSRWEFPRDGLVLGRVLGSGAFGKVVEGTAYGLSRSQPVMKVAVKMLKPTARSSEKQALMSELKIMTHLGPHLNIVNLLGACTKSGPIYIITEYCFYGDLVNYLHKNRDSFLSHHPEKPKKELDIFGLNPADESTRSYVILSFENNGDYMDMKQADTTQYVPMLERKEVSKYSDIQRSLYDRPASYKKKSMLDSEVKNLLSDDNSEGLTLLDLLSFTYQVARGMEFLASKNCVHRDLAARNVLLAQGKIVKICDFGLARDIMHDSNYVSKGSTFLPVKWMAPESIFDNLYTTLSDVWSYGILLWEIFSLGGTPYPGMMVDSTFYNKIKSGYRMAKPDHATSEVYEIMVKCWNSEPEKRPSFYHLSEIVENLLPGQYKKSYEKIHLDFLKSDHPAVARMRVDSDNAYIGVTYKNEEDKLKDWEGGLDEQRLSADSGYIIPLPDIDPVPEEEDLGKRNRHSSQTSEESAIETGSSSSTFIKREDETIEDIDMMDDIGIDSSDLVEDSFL
How it was run: as §1

[7] = tested on: KIT phosphorylation in M-07e cells; assay: Cell-based KIT phosphorylation in M-07e cells by pKIT ELISA; parameters: species or system human; details: SCF stimulation
Experimental: Exemplary compounds were tested for ability to inhibit KIT phosphorylation using M-07e cells as monitored by pKIT ELISA. M-07e cells are also represented as M-07E, M-07e, M07-e, M07e, Mo7e, MO7e, M07E and MO7E. Assay procedures and results are described below.
Part I—Procedures for Determining KIT Inhibition inM-07e Cells Using pKTT ELISA Reagents and consumables: • M-07e cells: Initially obtained from Accegen, cat #ABC-TC1313 • p-cKIT Capture ELISA antibody: anti-Human Phospho-CD117/c-kit, R&D cat #DYC3527-5 • Anti-pY-HIRP antibody: R&D cat #DYC3527-5 • 25× wash buffer: Quantikine ELISA Wash Buffer 1, R&D cat #WA126 • PBS: R&D cat #DY006 • 96 well ELISA plates: Clear Polystyrene Microplates, R&D Cat #DY990 • 96 well Tissue culture plates: Corning® 96 Well TC-Treated Microplates, cat #CLS3894 • RPMI medium: ATCC® RPMI-1640 Medium, Cat #30-2001 • FBS: Fetal Bovine Serum, certified, United States Gibco, Thermo-Fisher 16000044 • GM-CSF: Recombinant Human GM-CSF Protein, R&D cat #215-GM • SCF: Recombinant Human SCF Protein, R&D cat #255-SC
• 1. Prepare cells: • a. Culture M-07e cells in RPMI medium+20% serum+GM-CSF+penstrep • To make 50 mL of growth medium • i. 40 mL RPMI media • ii. 10 mL FBS • iii. 10 uL of GM-CSF (100 ug/mL stock) • iv. 0.5 mL pen strep (100×) • b. Harvest cells • c. Re-suspend cells in 100% RPMI media (without serum) to final concentration of 1 million cells/mL • d. Transfer 100 uL of cell solution to 11 columns of a 96 well flat bottom cell culture plate • e. Incubate cells over night at 37 C • 2. Prepare ELISA Plates: • a. Dilute capture antibody to concentration 4 ug/mL in PBS • b. Coat 96 well microplates with 100 uL of capture antibody • c. Seal plates and incubate at RT overnight • d. Wash plates with 300 uL of wash buffer • e. Repeat wash • f. Treat plates with 300 uL of blocking buffer at RT for 1 hour • 3. Addition of compounds: • a. Prepare compound dilutions in RPMI media • i. Top test concentration is 1 uM • ii. Serially dilute compounds 3× for a total of 8 concentrations • b. Add 10 uL of 10× compound dilutions to cells • i. No compounds added in column 11 (for controls) • c. Incubate cells with compounds for 2 hours at 37 C • d. Stimulate cells with SCF for 5 min at concentration of 100 ng/mL (final) • i. In column 11 stimulate top 4 wells. Leave bottom 4 wells unstimulated • e. Remove cell culture media with multichannel pipet • f. Add 110 uL of Lysis buffer to all wells • g. Incubate plates at RT for 30 min while shaking • 4. Transfer 100 uL of cell lysis to each prepared Elisa plate • 5. Add 100 uL of the standard pc-KIT dilutions to the standard wells in column 12 • a. Top concentration=2000 pg/mL • b. 2× dilutions • 6. Incubate ELISA plate with cell lysate for 2 hours at RT • 7. Wash Plate with wash buffer (wash 1) • 8. Repeat wash (wash 2) • 9. […] Add 100 uL of diluted anti-pY-HRP (1/1000 dilution in detection antibody dilution buffer) and incubate 2 hours at RT • 11. Wash plate with wash buffer (wash 1) • 12. Repeat wash (wash 2) • 13. Repeat wash (wash 3) • 14. Add 100 uL of substrate solution to each well • 15. Incubate plates 20 min • Note: Plate development is indicated by aqua color • 16. Add 50 uL of stop solution to each well • 17. Determine optical density on Bitek Synergy Neo2: • a. Make new experiment
Select absorbance 1 set to 450 nm

SMILES | Solubility (μM) [1] | IC50 [2] | IC50 [3] | IC50 [4] | MDCK-BCRP: Efflux Ratio [5] | MDCK-BCRP: Papp A-B [5] | IC50 [6] | IC50 [7]
COC(=O)N1CC(c2nc(-c3ccc(C)c(NC(=O)c4cnc5cc(OC(C)(C)CO)ccn45)c3)no2)C1 [Compound I-228] | ** (a solubility greater than 10 μM and less than or equal to 50 μM) | ≤ 0.05 µM | ≤ 0.05 µM | 0.05 to 0.5 µM | 22.9 | 1.08 10^−6 cm/s | 0.05 to 0.5 µM | 
Cc1ccc(-c2noc(C[C@@H](C)O)n2)cc1NC(=O)c1cnc2cc(C(F)F)ccn12 [Compound I-83] | **** (a solubility less than or equal to 2 μM) |  |  |  | 25.3 | 0.96 10^−6 cm/s |  | ≤ 0.05 µM
COC(=O)N1CC(c2nc(-c3ccc(C)c(NC(=O)c4cnc5cc(OCCO)ccn45)c3)no2)C1 [Compound I-264] | ** (a solubility greater than 10 μM and less than or equal to 50 μM) | ≤ 0.05 µM | ≤ 0.05 µM | ≤ 0.05 µM | 24.2 | 0.71 10^−6 cm/s | 0.05 to 0.5 µM | 
Cc1ccc(-c2noc(C[C@H](C)O)n2)cc1NC(=O)c1cnc2cc(C(F)F)ccn12 [Compound I-82] | **** (a solubility less than or equal to 2 μM) |  |  |  |  |  |  | 0.05 to 0.5 µM
Cc1ccc(-c2noc(C3(CO)CC(F)(F)C3)n2)cc1NC(=O)c1cnc2ccccn12 [Compound I-320] | *** (a solubility greater than 2 μM and less than or equal to 10 μM) | ≤ 0.05 µM | ≤ 0.05 µM |  | 16 | 1.75 10^−6 cm/s | 0.05 to 0.5 µM | 
Cc1ccc(-c2noc([C@H]3C[C@@H]3F)n2)cc1NC(=O)c1cnc2ccc(N3CCCC3)cn12 [Compound I-361] | **** (a solubility less than or equal to 2 μM) | ≤ 0.05 µM | ≤ 0.05 µM |  | 0.54 | 1.1 10^−6 cm/s | 0.05 to 0.5 µM | 
COC(=O)N1CC(c2nc(-c3ccc(C)c(NC(=O)c4cnn5ccc(C#N)cc45)c3)no2)C1 [Compound I-265] | ** (a solubility greater than 10 μM and less than or equal to 50 μM) | 5 to 30 µM | 0.05 to 0.5 µM | 0.05 to 0.5 µM | 19.4 | 1 10^−6 cm/s | 5 to 30 µM | 
Cc1ccc(-c2noc(CC(=O)OCc3ccccc3)n2)cc1NC(=O)c1cnc2ccccn12 [Compound I-322] | **** (a solubility less than or equal to 2 μM) | 0.05 to 0.5 µM | ≤ 0.05 µM |  | 2.7 | 1.38 10^−6 cm/s | 5 to 30 µM | 
Cc1ccc(-c2noc(C3CC(Oc4ccccc4)C3)n2)cc1NC(=O)c1cnc2ccccn12 (stereo not shown) [Compound I-348] | *** (a solubility greater than 2 μM and less than or equal to 10 μM) | 0.05 to 0.5 µM | ≤ 0.05 µM |  | 2.37 | 0.13 10^−6 cm/s | 0.5 to 5 µM | 
Cc1nc(-c2ccc(C)c(NC(=O)c3cnc4ccc(N)cn34)c2)no1 [Compound I-219] | *** (a solubility greater than 2 μM and less than or equal to 10 μM) | 0.05 to 0.5 µM | ≤ 0.05 µM | ≤ 0.05 µM | 37 | 0.79 10^−6 cm/s | 0.5 to 5 µM | 
Cc1ccc(-c2noc(-c3ccccn3)n2)cc1NC(=O)c1cnc2ccccn12 [Compound I-272] | **** (a solubility less than or equal to 2 μM) | 0.05 to 0.5 µM | ≤ 0.05 µM |  | 3.4 | 6.58 10^−6 cm/s | 0.5 to 5 µM | 
